Test results taken from ChEMBL document CHEMBL2417454, “Oxazolopyridines and thiazolopyridines as monoamine oxidase B inhibitors for the treatment of Parkinson's disease” (Bioorg Med Chem, 2013).

How the values were obtained:
[1] = biological target: T1, Amine oxidase [flavin-containing] B (Homo sapiens, UniProt P27338); experiment: Inhibition of human recombinant MAO-B using benzylamine hydrochloride as substrate assessed as H2O2 synthesis at 10 uM after 1 hr by fluorescence assay; conditions: read-out: INH
T1 sequence (P27338 whole entry): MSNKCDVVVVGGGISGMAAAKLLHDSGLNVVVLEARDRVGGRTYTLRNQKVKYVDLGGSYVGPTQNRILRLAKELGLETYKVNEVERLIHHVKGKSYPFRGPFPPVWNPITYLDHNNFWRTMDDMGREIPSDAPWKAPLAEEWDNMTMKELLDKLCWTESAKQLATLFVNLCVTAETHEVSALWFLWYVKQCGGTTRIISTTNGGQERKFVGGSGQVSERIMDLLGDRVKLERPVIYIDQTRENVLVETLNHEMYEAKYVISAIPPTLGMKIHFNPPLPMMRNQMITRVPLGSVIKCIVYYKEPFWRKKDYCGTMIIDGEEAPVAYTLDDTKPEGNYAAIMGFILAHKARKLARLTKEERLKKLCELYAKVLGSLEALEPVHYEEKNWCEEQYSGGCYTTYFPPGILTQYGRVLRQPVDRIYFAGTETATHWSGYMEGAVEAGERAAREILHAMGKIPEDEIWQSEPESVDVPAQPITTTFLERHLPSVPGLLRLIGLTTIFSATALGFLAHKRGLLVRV

[2] = biological target: T1, Amine oxidase [flavin-containing] B; experiment: Inhibition of human recombinant MAO-B using benzylamine hydrochloride as substrate assessed as H2O2 synthesis after 1 hr by fluorescence assay

inhibition at 10 µM [1]	IC50 [2]	Compound
57.9%		c1ccc(-c2nc3ccc(N4CCCCCC4)nc3o2)cc1
89.7%		Fc1cccc(-c2nc3ccc(N4CCCCC4)nc3o2)c1
94.9%	665 nM	Fc1ccccc1-c1nc2ccc(N3CCCCC3)nc2o1
91.7%	335 nM	Clc1cccc(-c2nc3ccc(N4CCCCC4)nc3o2)c1
96.3%	267 nM	Clc1ccccc1-c1nc2ccc(N3CCCCC3)nc2o1
86.8%	1370 nM	c1ccc(-c2nc3ccc(N4CCCCC4)nc3o2)cc1
69.8%	890 nM	Clc1ccc(-c2nc3ccc(N4CCCCC4)nc3o2)cc1

More lines, now with the values behind:

Compound	inhibition at 10 µM [1]	IC50 [2]
c1ccc(-c2nc3ccc(NC4CCCCC4)nc3o2)cc1	79.1%	2540 nM
CN(Cc1ccccc1)c1ccc2nc(-c3ccccc3)oc2n1	3.7%	
Fc1ccc(-c2nc3ccc(N4CCCCC4)nc3s2)cc1	92.7%	26.5 nM
CNc1ccc2nc(-c3ccccc3)oc2n1	19%	
Clc1ccc(-c2nc3ccc(N4CCCCC4)nc3s2)cc1	84.2%	358 nM
Clc1ccccc1-c1nc2ccc(N3CCCCC3)nc2s1	95.1%	171 nM
Fc1ccc(-c2nc3ccc(N4CCCCC4)nc3o2)cc1	93.4%	270 nM
c1ccc(-c2nc3ccc(N4CCCCC4)nc3s2)cc1	95.5%	356 nM
c1ccc(CNc2ccc3nc(-c4ccccc4)oc3n2)cc1	4.8%	
